How the values were obtained:
HER2 INS YVMA = biological target: T1, HER2 INS YVMA (Homo sapiens, UniProt P04626, INS775YVMA); assay: Lance Kinase Activity Assay, HER2 INS YVMA (Her2 Exon 20 INSYVMA Lance); format: biochemical; conditions: biochemical Lance assay
T1 construct: purchased DPF
Summary of the method: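 IC50 was fitted to sigmoidal curves of TR-FRET signal (665 and 615 nm emission after 340 nm excitation) from an Eu anti-phospho antibody binding the phosphorylated ULight peptide. The ATP-started reaction ran 1 h at RT and was then quenched with 10 mM EDTA plus antibody for a further 1 h. Compounds were tested as 8-point, 3-fold dilutions.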

[1] = biological target: Her2 Exon 20 INSYVMA Ba/F3 (Homo sapiens, UniProt P04626, DUP772-775, cells depend on it); assay: Her2 Exon 20 INSYVMA Ba/F3 CellTiter-Glo; format: cell-based; conditions: CellTiter-Glo, 72 h, read-out: Her2 Exon 20 INSYVMA Ba/F3 CTG IC50
Summary of the method: (§1)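 IC50 values come from dose–response fits of CellTiter-Glo luminescence in Ba/F3 cells treated with compound for 72 h at 37 °C, 5% CO2. Vehicle (DMSO) and 10 μM staurosporine wells set the assay window, with Z′ ≥0.5 required.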

[2] = biological target: EGFR Exon 20 INSNPH Ba/F3 (Homo sapiens, UniProt P00533, DUP771-773, cells depend on it); assay: EGFR Exon 20 INSNPH Ba/F3 CellTiter-Glo; format: cell-based; conditions: CellTiter-Glo, 72 h, read-out: EGFR Exon 20 INSNPH Ba/F3 CTG IC50
Summary of the method: as §1

EGFR T790ML858R = EGFR T790ML858R (Homo sapiens, UniProt P00533, L858R/T790M); assay: EGFR T790ML858R Lance assay; format: biochemical
Description: (§2) Inhibition is indicated as […] [nM] (“−”=not measured). Compounds having an activity designated as “A” provided an IC50≤100 nM; compounds having an activity designated as “B” provided an 100 nM<IC50≤500 nM; compounds having an activity designated as “C” provided an 500 nM<IC50≤1000 nM; compounds having an activity designated as “D” provided an 1000 nM<IC50≤100000 nM; and compounds having an activity designated as “E” provided an IC50>10000 nM.

EGFR wt = EGFR wt (Homo sapiens, UniProt P00533); assay: EGFR wt Lance assay; format: biochemical
Description: as §2

H1975 = H1975 CellTiter-Glo; format: cell-based; conditions: Homo sapiens, NCI-H1975; 72 h compound incubation; read-out: H1975 CTG IC50
Summary of the method: (§3)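 In this viability format, compound-treated cells sit 72 h at 37° C. before ATP content is quantified by luminescence, and IC50 is taken from the fitted dose-response curve.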

H1781 = H1781 CellTiter-Glo; format: cell-based; conditions: NCI-H1781; 72 h compound incubation; read-out: H1781 CTG IC50
Description: 2. Measurement of Cellular Activity
The CellTiter-Glo Luminescent Cell Viability Assay (Promega) is a homogeneous method of determining the number of viable cells in culture. It is based on quantification of ATP, indicating the presence of metabolically active cells. Cells are seeded on day 1 at cell numbers that assure assay linearity and optimal signal intensity. After incubation for 24 h in humidified chambers at 37° C. and 5% CO2, compounds in DMSO are added at different concentrations. Cells are further incubated for 72 h at 37° C. and 5% CO2. Cells treated with the compound vehicle DMSO are used as positive controls and cells treated with 10 μM Staurosporine serve as negative controls. At day 5 the CellTiter Glo Reagent is prepared according to the instructions of the kit (Promega Inc.): Reagent is mixed 1:1 with cell culture medium. Thereon, mixture and assay plates are equilibrated at room temperature for 20 min. Equal volumes of the reagent-medium-mixture is added to the volume of culture medium present in each well. The plates are mixed at ˜200 rpm for 2 minutes on an orbital shaker. The microplates are then incubated at room temperature for 10 minutes for stabilization of the luminescent signal. Following incubation the luminescence is recorded on a Victor microplate reader (Perkin Elmer) using a 200 ms integration time. The data is then analyzed with Excel using the XLFIT Plugin (dose response Fit 205) for IC50-determination. As quality control the Z′-factor is calculated from 16 positive and negative control values. Only assay results showing a Z′-factor ≥0.5 are used for further analysis.
as §2

A431 = A431 CellTiter-Glo; format: cell-based; conditions: Homo sapiens, A-431; 72 h compound incubation; read-out: A431 CTG IC50
Summary of the method: as §3

[3] = Metabolic stability in mouse liver microsomes without cofactor NADPH; format: in vitro ADME; conditions: 3 μM test compound, mouse liver microsomes, without NADPH, 50 min, 37° C., LC-MS/MS
Summary of the method: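 Cofactor-free incubation: no NADPH added to mouse liver microsomes, with compound at 3 μM and 37° C. Remaining parent was quantified by LC-MS/MS at time points up to 50 minutes to track depletion.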

Chain of Her2 Exon 20 INSYVMA Ba/F3 (P04626 with tags, fused parts or gaps DUP772-775): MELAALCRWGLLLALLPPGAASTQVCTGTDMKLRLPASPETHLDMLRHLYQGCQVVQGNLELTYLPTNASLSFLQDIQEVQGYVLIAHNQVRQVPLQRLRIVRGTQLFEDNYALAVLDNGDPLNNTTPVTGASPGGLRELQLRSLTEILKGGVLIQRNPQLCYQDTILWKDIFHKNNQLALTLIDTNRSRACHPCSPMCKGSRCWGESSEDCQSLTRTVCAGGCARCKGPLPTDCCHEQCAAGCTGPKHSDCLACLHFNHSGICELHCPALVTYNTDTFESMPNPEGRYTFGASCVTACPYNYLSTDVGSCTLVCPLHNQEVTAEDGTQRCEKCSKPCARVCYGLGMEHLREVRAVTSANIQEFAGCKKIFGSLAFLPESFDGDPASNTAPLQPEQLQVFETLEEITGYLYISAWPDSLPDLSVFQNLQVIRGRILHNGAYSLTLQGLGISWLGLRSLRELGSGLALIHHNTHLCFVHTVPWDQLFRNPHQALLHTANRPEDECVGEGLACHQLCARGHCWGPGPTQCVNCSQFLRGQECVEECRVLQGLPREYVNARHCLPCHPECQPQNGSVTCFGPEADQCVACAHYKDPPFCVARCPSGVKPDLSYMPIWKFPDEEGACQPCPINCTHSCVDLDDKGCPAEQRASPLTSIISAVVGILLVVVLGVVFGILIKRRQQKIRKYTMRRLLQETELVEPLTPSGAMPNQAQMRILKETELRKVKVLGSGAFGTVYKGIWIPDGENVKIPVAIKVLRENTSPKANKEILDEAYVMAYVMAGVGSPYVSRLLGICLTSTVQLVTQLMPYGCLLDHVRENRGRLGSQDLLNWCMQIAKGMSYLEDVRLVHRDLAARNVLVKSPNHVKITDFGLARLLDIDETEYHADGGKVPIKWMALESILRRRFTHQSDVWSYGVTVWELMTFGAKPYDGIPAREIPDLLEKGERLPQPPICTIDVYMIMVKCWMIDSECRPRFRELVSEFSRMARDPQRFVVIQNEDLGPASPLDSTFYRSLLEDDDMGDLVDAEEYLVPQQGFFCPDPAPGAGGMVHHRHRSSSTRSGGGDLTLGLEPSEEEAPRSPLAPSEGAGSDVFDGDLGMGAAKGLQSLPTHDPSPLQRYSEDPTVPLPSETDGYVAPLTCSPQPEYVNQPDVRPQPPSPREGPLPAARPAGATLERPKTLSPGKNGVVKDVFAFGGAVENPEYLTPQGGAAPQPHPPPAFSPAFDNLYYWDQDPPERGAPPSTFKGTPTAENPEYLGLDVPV
T1 sequence (P04626 with tags, fused parts or gaps INS775YVMA): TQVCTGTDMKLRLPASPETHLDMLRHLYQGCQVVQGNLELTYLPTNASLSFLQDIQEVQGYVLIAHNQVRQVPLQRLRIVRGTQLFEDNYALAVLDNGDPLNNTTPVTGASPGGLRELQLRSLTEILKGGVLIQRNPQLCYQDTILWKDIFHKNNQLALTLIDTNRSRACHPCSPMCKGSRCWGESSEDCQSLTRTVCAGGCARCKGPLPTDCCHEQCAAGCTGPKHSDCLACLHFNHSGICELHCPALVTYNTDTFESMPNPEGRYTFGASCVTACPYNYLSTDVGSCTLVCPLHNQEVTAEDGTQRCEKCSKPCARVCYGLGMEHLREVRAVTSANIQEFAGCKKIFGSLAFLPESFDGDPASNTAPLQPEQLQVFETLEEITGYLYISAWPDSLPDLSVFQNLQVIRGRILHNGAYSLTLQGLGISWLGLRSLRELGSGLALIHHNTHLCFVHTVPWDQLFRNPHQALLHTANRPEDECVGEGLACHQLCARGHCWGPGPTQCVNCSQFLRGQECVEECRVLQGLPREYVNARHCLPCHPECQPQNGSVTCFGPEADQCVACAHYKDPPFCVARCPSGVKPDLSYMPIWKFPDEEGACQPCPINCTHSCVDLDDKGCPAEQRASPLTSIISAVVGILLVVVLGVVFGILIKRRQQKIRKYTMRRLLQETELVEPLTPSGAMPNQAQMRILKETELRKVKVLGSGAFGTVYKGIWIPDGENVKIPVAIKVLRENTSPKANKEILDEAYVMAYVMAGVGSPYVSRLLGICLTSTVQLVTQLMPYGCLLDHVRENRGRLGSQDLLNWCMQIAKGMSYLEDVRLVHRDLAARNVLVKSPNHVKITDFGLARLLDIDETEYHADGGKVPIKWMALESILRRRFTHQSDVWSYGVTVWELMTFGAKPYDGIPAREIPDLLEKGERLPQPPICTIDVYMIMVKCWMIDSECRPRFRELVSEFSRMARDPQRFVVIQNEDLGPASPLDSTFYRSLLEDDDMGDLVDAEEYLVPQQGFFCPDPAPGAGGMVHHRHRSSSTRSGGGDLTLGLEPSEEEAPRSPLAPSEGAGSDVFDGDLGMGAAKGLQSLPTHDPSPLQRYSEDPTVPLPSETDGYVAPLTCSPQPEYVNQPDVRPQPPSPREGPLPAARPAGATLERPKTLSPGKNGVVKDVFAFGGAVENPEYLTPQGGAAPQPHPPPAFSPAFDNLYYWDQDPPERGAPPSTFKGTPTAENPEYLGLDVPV
Chain of EGFR Exon 20 INSNPH Ba/F3 (P00533 with tags, fused parts or gaps DUP771-773): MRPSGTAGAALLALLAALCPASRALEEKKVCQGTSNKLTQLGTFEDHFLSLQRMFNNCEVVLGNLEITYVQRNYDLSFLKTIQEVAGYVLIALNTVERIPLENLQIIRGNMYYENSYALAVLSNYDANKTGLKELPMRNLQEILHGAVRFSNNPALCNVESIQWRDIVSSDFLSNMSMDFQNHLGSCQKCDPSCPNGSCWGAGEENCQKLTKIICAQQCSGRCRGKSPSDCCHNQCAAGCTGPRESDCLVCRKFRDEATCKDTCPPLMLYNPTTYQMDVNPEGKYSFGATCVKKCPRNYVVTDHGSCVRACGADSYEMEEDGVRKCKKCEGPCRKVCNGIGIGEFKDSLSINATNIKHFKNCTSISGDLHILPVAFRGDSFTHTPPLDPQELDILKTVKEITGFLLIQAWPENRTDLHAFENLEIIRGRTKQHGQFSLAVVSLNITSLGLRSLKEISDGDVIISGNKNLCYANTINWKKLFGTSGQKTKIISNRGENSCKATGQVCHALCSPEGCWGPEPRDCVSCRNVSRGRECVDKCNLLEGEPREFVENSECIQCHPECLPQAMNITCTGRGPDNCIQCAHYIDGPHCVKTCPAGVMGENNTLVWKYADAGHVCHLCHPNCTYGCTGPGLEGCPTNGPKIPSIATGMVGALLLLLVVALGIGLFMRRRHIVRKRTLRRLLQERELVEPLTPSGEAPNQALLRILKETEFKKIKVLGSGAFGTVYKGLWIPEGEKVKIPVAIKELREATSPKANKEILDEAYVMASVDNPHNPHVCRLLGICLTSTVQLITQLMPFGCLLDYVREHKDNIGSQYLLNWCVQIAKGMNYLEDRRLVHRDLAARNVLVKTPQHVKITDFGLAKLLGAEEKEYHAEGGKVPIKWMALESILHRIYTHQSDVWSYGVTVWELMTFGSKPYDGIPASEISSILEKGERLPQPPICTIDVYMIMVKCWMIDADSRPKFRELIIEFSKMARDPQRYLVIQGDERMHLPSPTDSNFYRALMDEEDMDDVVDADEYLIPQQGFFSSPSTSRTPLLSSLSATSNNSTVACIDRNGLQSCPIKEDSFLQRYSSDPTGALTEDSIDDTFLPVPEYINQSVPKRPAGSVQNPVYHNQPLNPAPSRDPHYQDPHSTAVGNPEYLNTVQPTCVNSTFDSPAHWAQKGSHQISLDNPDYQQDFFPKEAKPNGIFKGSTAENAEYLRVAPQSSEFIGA
Chain of EGFR wt (P00533 25-1210): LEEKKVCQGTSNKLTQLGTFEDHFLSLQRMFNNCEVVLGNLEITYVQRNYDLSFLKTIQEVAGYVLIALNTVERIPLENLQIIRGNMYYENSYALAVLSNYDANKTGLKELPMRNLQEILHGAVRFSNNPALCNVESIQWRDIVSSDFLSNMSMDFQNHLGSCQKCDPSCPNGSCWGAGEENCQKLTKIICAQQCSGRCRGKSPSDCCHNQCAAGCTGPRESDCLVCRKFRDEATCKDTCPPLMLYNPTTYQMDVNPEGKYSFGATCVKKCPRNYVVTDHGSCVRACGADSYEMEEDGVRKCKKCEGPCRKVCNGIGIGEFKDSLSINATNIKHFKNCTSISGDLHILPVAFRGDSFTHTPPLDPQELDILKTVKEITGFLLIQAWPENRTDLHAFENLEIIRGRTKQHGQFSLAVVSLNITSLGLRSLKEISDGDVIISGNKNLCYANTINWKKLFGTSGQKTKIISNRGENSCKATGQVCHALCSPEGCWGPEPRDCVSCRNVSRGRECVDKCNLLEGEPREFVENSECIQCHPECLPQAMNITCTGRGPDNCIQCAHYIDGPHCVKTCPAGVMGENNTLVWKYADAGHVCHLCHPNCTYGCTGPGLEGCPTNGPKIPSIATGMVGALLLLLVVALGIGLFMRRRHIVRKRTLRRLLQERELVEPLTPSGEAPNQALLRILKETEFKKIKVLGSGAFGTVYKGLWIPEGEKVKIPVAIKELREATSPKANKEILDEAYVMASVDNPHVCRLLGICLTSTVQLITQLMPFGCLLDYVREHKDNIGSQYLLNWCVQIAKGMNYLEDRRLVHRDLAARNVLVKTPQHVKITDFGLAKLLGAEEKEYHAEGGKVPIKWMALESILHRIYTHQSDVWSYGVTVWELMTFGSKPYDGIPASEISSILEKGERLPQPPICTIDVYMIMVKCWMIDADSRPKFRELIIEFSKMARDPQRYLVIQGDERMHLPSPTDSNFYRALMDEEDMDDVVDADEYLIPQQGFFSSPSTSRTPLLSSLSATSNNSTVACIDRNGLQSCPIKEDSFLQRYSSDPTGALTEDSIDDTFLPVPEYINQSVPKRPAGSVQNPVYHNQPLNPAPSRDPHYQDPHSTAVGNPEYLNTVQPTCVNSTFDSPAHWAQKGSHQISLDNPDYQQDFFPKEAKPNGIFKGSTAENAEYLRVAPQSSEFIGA

Row | Structure (SMILES) | IC50 (HER2 INS YVMA) [nM] | GI50 [1] [nM] | GI50 [2] [nM] | IC50 (EGFR T790ML858R) [nM] | IC50 (EGFR wt) [nM] | IC50 (H1975) [nM] | IC50 (H1781) [nM] | IC50 (A431) [nM] | Stability in presence of mouse liver microsomes without cofactor NADPH [% remaining after 50 min] [3] [% remaining after 50 min]
1 | C=CC(=O)Nc1cc(-c2c(-c3ccc(N4CCN(S(=O)(=O)CC)CC4)cc3)[nH]c3nccc(Cl)c23)ccc1C [Example 15, N-(5-(4-chloro-2-(4-(4-(ethylsulfonyl)piperazin-1-yl)phenyl)-1H-pyrrolo[2,3-b]pyridin-3-yl)-2-methylphenyl)acrylamide] | 100 to 500 | 100 to 500 | 100 to 500 | ≤ 100 | ≤ 100 | ≤ 100 | 500 to 1000 | 100 to 500 | >99
2 | C=CC(=O)Nc1cc(-c2c(-c3ccc(N4CCNCC4)cc3)[nH]c3nccc(Cl)c23)ccc1C [Example 96, N-(5-(4-chloro-2-(4-(piperazin-1-yl)phenyl)-1H-pyrrolo[2,3-b]pyridin-3-yl)-2-methylphenyl)acrylamide 2,2,2-trifluoroacetate] | ≤ 100 | 100 to 500 | 100 to 500 | ≤ 100 | ≤ 100 | ≤ 100 | 100 to 500 | 100 to 500 | 92
3 | C=CC(=O)Nc1cc(-c2c(-c3ccc(CCN(C)C)cc3)[nH]c3nccc(Cl)c23)ccc1C [Example 4, N-(5-(4-chloro-2-(4-(2-(dimethylamino)ethyl)phenyl)-1H-pyrrolo[2,3-b]pyridin-3-yl)-2-methylphenyl)acrylamide] | ≤ 100 | 100 to 500 | 100 to 500 | ≤ 100 | ≤ 100 | ≤ 100 | 100 to 500 | 100 to 500 | >99
4 | C=CC(=O)Nc1cc(-c2c(-c3ccc(N4CCN(C)CC4)cc3)[nH]c3nccc(Cl)c23)ccc1C [Example 2, N-(5-(4-chloro-2-(4-(4-methylpiperazin-1-yl)phenyl)-1H-pyrrolo[2,3-b]pyridin-3-yl)-2-methylphenyl)acrylamide] | ≤ 100 | ≤ 100 | ≤ 100 | ≤ 100 | ≤ 100 | ≤ 100 | 100 to 500 | 100 to 500 | >99
5 | C=CC(=O)N1CCOc2ccc(-c3c(-c4ccc(N5CCN(C)CC5)cc4)[nH]c4nccc(Cl)c34)cc21 [Example 83, 1-(6-(4-chloro-2-(4-(4-methylpiperazin-1-yl)phenyl)-1H-pyrrolo[2,3-b]pyridin-3-yl)-2H-benzo[b][1,4]oxazin-4(3H)-yl)prop-2-en-1-one 2,2,2-trifluoroacetate] | ≤ 100 | 100 to 500 | 100 to 500 | ≤ 100 | ≤ 100 | 100 to 500 | 1000 to 100000 | 1000 to 100000 | >99
6 | C=CC(=O)Nc1cc(-c2c(-c3ccc(OCCN(C)C)cc3)[nH]c3nccc(Cl)c23)ccc1C [Example 18, N-(5-(4-chloro-2-(4-(2-(dimethylamino)ethoxy)phenyl)-1H-pyrrolo[2,3-b]pyridin-3-yl)-2-methylphenyl)acrylamide] | ≤ 100 | 100 to 500 | ≤ 100 | ≤ 100 | ≤ 100 | ≤ 100 | 100 to 500 | 100 to 500 | 90
